Source: US20250090562A1, “METHODS, COMPOSITIONS AND USES RELATED TO THE TREATMENT AND PREVENTION OF LEIGH’S SYNDROME” (Stealth BioTherapeutics Inc., priority 2023, published 2025)
Entries after “also recorded” stand apart in the source; their conditions may differ. Like-named read-outs stand apart in the source and are kept apart here.

How the values were obtained:
[1] = type: in vivo; conditions: rat, single dose 1 mg/kg IV, 10 mg/kg SC or 10 mg/kg PO
Protocol: • Animals: Rat/Sprague Dawley/Male/Naive 225-250 grams were received from an approved vendor. • Animals were fasted overnight prior to dose administration. Food was returned following the 2 hour sample collection. • Body weights were recorded prior to dose administration. The volume of each dose delivered (ml/kg) was based on each individual animal's body weight. • This was a single dose, serial blood collection study with tissues collected for possible future analysis. • Doses were administered in accordance with test facility standard operating procedures. […].
• Blood samples were collected via jugular vein catheter (JVC) and transferred to tubes with appropriate anticoagulant. The tubes were stored on wet ice until processed to plasma by centrifugation (3500 rpm at 5° C. for 10 minutes) within 20 minutes of collection. Sample aliquots of 100 μL were transferred into individual uniquely labeled matrix tubes containing 10 μL of 5% (v/v) formic acid aqueous solution and stored at nominal −80° C. until analyzed by LC/MS/MS. • Immediately following final serial blood collection (24 hours, JVC), animals were sacrificed and perfused with cold PBS. […]

15-lipoxygenase (15-LO) = assay: 15(S)-HETE ELISA following erastin treatment, healthy fibroblasts; type: cell-based, human; conditions: erastin + FAC + AA, 1 μM compound, 24 h
Protocol: Samples for the 15(S)-HETE ELISA were generated by the Erastin Assay described above. Healthy or Leigh fibroblasts were resuspended in assay medium, seeded at 200,000 cells/well in a clear, tissue culture-treated, 24-well plate, and incubated at 37° C. for 24 hours. Supernatant was aspirated from each well.
Ferroptosis was induced using erastin at 2 μM concentration. 15(S)-HETE, which is a metabolite of arachidonic acid and generated by activity of 15-LO, was measured using a commercially available ELISA kit. Data were normalized to the “No treatment” group, which represented fibroblasts that were not injured with erastin.

[2] = Pharmacokinetics of Compound 3, repeated (5 days) subcutaneous dose, rats; type: in vivo, Sprague Dawley rats
Protocol: • Animals: Rat/Sprague Dawley/Male/Naive 225-250 grams were received from an approved vendor. • Fasting was not required for this study. • Body weights were recorded prior to dose administration. The volume of each dose delivered (mL/kg) was based on each individual animal's body weight. • This was a multiple dose terminal study dosed once per day over 5 days. Rats were taken down following their 5th and final dose. • Doses were administered in accordance with test facility standard operating procedures. […] Any abnormalities were recorded. • Pre-formulated Compounds 3 was provided by Study sponsor ready to be dosed for each day in accordance with the Study Design set forth in Table 3, below.
• Terminal blood samples were collected via cardiac puncture following inhalation anesthesia in accordance with test facility standard operating procedures. • Blood samples were collected into tubes with appropriate anticoagulant. Tubes were stored on wet ice until processed to plasma by centrifugation (3500 rpm at 5° C. for 10 minutes) within 20 minutes of collection. Sample aliquots of 100 μL were transferred into individual uniquely labeled matrix tubes and stored at nominal −80° C. until transferred to analytical chemistry for analysis. • Immediately following each terminal blood collection for all groups, animals were sacrificed and perfused with cold PBS. […]

[3] = Compound 4 pharmacokinetics and tissue exposure, five daily subcutaneous doses, mice; type: in vivo, C57BL/6 mice
Protocol: • Animals were allowed to acclimate to the test facility for at least two days prior to the beginning of the study. • Study animals were male C57BL/6 mice weighing approximately 18-25 grams each. • Fasting was not required for the study. • Body weights were recorded prior to dose administration. The volume of each dose delivered (mL/kg) was based on each individual animal's body weight. • This was a multiple dose serial PK dosed subcutaneously once daily over 5 days. Compound 4 was administered to two groups: Group 1 at 60 mg/kg and Group 2 at 180 mg/kg (6 and 18 mg/mL, 15% Kolliphor ELP in PBS, 10 mL/kg; N=3/group). Serial PK timepoints were collected following the 5th and final dose.
• Serial blood samples were collected via tail vein snip. • Blood samples were collected into tubes with anticoagulant. Tubes were stored on wet ice until processed to plasma by centrifugation (3500 rpm at 5° C. for 10 minutes) within 20 minutes of collection. Sample aliquots of 20 μL were transferred into individual uniquely labeled matrix tubes and stored at nominal −80° C. until transferred to analytical chemistry for analysis. • Immediately following each terminal blood collection for all groups, animals were sacrificed and perfused with cold PBS. Heart and brain tissues were collected. • Perfusion methodology: The chest was opened lengthwise using scissors to expose the thoracic organs. A scalpel was used to cut a small hole into the left ventricle just large enough to insert a cannula tip. The cannula was attached to an appropriately sized tubing and syringe prefilled with cold PBS and primed to remove any air. The tip of the cannula was inserted into the left ventricle and directed into the ascending aorta. Hemostats were used to help keep the cannula in place during perfusion. A second hole was made in the right atrium to allow for the escape of fluid during the return circulation. The syringe attached to the cannula was manually pushed or placed into a pump programmed to infuse at 10 mL/min. Animals were perfused for a minimum of 3 minutes or more if needed (until the exiting fluid was clear).
• N=3/group; • Collections relative to the final dose: • Plasma: 60 mg/kg at 2 and 24 hr; 180 mg/kg at predose, 2, 8, and 24 hr • Heart and Brain: 24 hr (terminal, PBS-perfused); • RGA 2 bioanalysis. […]

[4] = male, C57BL/6, mouse, in vivo, sc
[5] = male, C57BL/6, mouse, in vivo, sc, 60 mg/kg
[6] = male, C57BL/6, mouse, in vivo, sc, 60 mg/kg, 24 h
[7] = male, C57BL/6, mouse, in vivo, sc, 180 mg/kg
[8] = male, C57BL/6, mouse, in vivo, sc, 180 mg/kg, 24 h

Structure (SMILES): CC1=C(C)C(=O)C(CC[C@@](C)(O)CC/C=C(\C)CCC=C(F)F)=C(C)C1=O [Compound 2]
- tolerability [1]: well tolerated
- delivery by mode of administration ([1]; preliminary): effectively administered
- relative 15-LO inhibition (comparison between test articles) (15-lipoxygenase (15-LO)): slightly less effective

Structure (SMILES): CC1=C(C)C(=O)C(CC[C@@](C)(O)COCCC[Si](C)(C)C)=C(C)C1=O [Compound 3]
- plasma uptake and clearance across species (mouse versus rat) ([2]; 20 mg/kg SC in mouse versus 10 mg/kg SC in rat (60 mg/m^2)): roughly equivalent; also recorded: scales well by allometry
- tolerability ([2]; rat, 10 mg/kg SC once per day for 5 days): well tolerated

Structure (SMILES): CC1=C(C)C(=O)C(CC[C@](C)(O)CCCCCCCCC(F)(F)F)=C(C)C1=O [Compound 4]
- tolerability ([3]; 60 and 180 mg/kg SC over 5 days, 10 mL/kg QD, 15% Kolliphor ELP in PBS): well tolerated
- Geomean C24 ([3]; male, C57BL/6, mouse, in vivo, 180 mg/kg, 24 h): 602 ng/g
- concentration at 24 h ([3]; male, C57BL/6, mouse, in vivo, 180 mg/kg, Geomean C24): 514 ng/g
- time to steady-state [3, 4]: ≤ 5 days
- AUC(0-t) [3, 5]: 15400 ng·h/mL
- AUClast/Dose [3, 5]: 257 kg·ng·h/mL/mg
- Cmax [3, 5]: 1440 ng/mL
- Concentration in C57BL/6 Mouse Tissue, Geomean [3, 6]: 225 ng/g
- Concentration in C57BL/6 Mouse Tissue, Mean [3, 6]: 226 ng/g
- Cmax ([3]; male, C57BL/6, mouse, in vivo, sc, 60 mg/kg, Cmax): 1810 ng/mL
- concentration at 24 h ([3]; male, C57BL/6, mouse, in vivo, sc, 60 mg/kg, Concentration in C57BL/6 Mouse Tissue, Geomean): 192 ng/g
- concentration at 24 h ([3]; male, C57BL/6, mouse, in vivo, sc, 60 mg/kg, Concentration in C57BL/6 Mouse Tissue, Mean): 212 ng/g
- AUC(0-t) [3, 7]: 49100 ng·h/mL
- AUClast/Dose [3, 7]: 273 kg·ng·h/mL/mg
- Cmax/Dose [3, 7]: 26.7 kg·ng/mL/mg
- C24/Dose [3, 8]: 1.48 kg·ng/mL/mg
- Concentration in C57BL/6 Mouse Tissue, Geomean [3, 8]: 602 ng/g
- Concentration in C57BL/6 Mouse Tissue, Mean [3, 8]: 635 ng/g
- concentration at 24 h ([3]; male, C57BL/6, mouse, in vivo, sc, 180 mg/kg, C24): 266 ng/mL
- Cmax ([3]; male, C57BL/6, mouse, in vivo, sc, 180 mg/kg, Cmax): 4800 ng/mL
- concentration at 24 h ([3]; male, C57BL/6, mouse, in vivo, sc, 180 mg/kg, Concentration in C57BL/6 Mouse Tissue, Geomean): 514 ng/g
- concentration at 24 h ([3]; male, C57BL/6, mouse, in vivo, sc, 180 mg/kg, Concentration in C57BL/6 Mouse Tissue, Mean): 529 ng/g
- Tmax [3, 7]: 2 h
- Tmax [3, 4]: 0.5 to 2 h
- plasma exposure versus dose ([3]; mouse, in vivo): approximately proportional to dose
- tissue C24 (trough) exposure versus dose ([3]; mouse, in vivo): approximately proportional to dose
